{"source": "patent US5962418A", "about": "“Factor VII-derived peptides” (Nycomed Imaging A/S, priority 1993, dated 1999)", "key": {"[1]": {"target": "FVII binding to immobilized rTF (Homo sapiens, UniProt P13726)", "sequence (P13726 33-295)": "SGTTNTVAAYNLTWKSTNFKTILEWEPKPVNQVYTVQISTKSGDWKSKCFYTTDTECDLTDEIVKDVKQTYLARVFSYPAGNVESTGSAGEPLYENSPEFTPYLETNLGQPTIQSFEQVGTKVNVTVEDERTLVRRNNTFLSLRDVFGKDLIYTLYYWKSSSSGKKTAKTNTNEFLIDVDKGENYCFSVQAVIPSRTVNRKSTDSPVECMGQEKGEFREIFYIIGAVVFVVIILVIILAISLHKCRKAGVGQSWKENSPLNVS", "assay": "ELISA assay of inhibition of FVII binding to immobilized rTF", "details": "for inhibition at 500 µM: peptide 0.5 mM", "protocol": "FIG. 13 ELISA assay of the inhibition of FVII binding to immobilized rTF produced by synthetic FVII peptides (all at 0.5 mM). For peptide sequences see the table of peptides below (page 19). C and L denote the cyclic and linear forms respectively of peptides with terminal cysteines.\nThe inhibition results shown in FIG. 13 indicate that in addition to sequences from the \"hinge\" region (i.e. residues 41-48 between the GLA domain and the first EGF domain, […]) and from the first EGF domain itself (i.e. residues 50-61; Clarke et al), there exist additional sequences in the second EGF domain (especially 95-104) which are inhibitors when presented as peptides in this binding assay."}, "[2]": {"target": "T1, tissue factor (TF) expressed on the surface of living cells (Homo sapiens, UniProt P13726)", "T1 construct": "induced by tissue factor (TF) expressed on the surface of living cells; endogenous in cells; host or cells: living cells on Cytodex-3 microcarriers (e.g. human HT-1080 or ECV-304)", "T1 sequence (P13726 33-295)": "as above", "assay": "Assay of cell-surface TF initiated coagulation of plasma (microcarrier coagulation assay)", "assay_type": "cell-based", "details": "peptide 0.5 mM", "protocol": "FIGS. 9A-9C Principle of the microcarrier assay of cell-surface mediated coagulation of blood plasma. Living cells (e.g., human HT-1080 fibrosarcoma; ATCC CRL 121) adherent on the surface of microcarriers are mixed with a calcium-containing buffer and plasma in the incubation well of a Thrombotrack™ electromagnetic coagulometer (Nycomed). The clotting time is measured by the increase in resistance to movement of a magnetic ball produced by the formation of fibrin fibres. HT-1080 cells adherent on Cytodex-3 microcarriers are shown in FIG. 9C as an example of the types of cells expressing TF which may be used.\nAssay of Cell-surface TF Initiated Coagulation of Plasma\nA novel assay system has been devised to measure the coagulation of blood plasma (i.e. clotting time) induced by tissue factor (TF) expressed on the surface of living cells. This assay makes use of human or animal cells adherent on the surface of microcarriers (see FIG. 9), which enables reproducible presentation of known amounts of TF activity in the stirred measuring well of an electromagnetic coagulometer. The cells used may be normal or transformed, and representing phenotypes such as monocytes, endothelium, fibroblasts etc (see FIG. 10).\nThis novel assay has been particularly developed and characterised so as to be highly useful in determining the effect of synthetic peptides and peptidomimetic compounds on the extrinsic pathway of coagulation, using living cells in a plasma milieu. Results for the inhibitory effect of synthetic peptides based upon the amino acid sequence of human FVII are disclosed.\nThe microcarrier cell preparation is made as follows. Cells obtained from primary isolates or subcultures of transformed lines (see FIG. 10) are suspended in a small volume of serum-containing medium and mixed with microcarriers (Cytodex-3, Pharmacia) in a ratio of about 50-100 cells/microcarrier. The cells are usually adhere nt on the microcarriers within 2 hours, and can then be transferred to normal roller bottles with a larger volume of culture medium. Uniform coverage of microcarriers with about 20-60 cells can be obtained directly with transformed cells, when large cell numbers are available, or after 2 days growth when primary cultures (e.g. umbilical vein endothelial cells) are used. […]\nTo assay the extrinsic coagulation activity, the microcarrier cell preparations are first washed with a calcium-free buffer to remove bound serum factors. A calcium-containing buffer and plasma are then added and the clotting time is determined automatically in an electromagnetic coagulometer. […]"}, "FVIIa/TF": {"target": "T2, FVIIa/TF (Homo sapiens, UniProt P13726)", "T2 construct": "purchased Behringwerk (TF, Thromborel); Diagnostica Stago (FVIIa)", "T2 sequence (P13726 33-295)": "as above", "assay": "Kinetics of inhibition of FX activation (assay of FVIIa/TF activity)", "assay_type": "biochemical", "details": "varying FVII-5 and Factor X concentrations", "protocol": "Peptides (0-1 mM) were preincubated in 0.1 M Tris.HCl pH 7.2 with tissue factor (Thromborel®, Behringwerk, Marburg, Germany; 0.2% final concentration) at 22° C. for 30 minutes, then Factor X (American Diagnostica Inc., Greenwich, Conn. USA; 70 nM was added followed by FVIIa (Diagnostica Stago, Asnieres, France; 8 pM and CaCl2 (5 mM). Incubations were continued for 30 minutes and quenched with EDTA (50 mM) which removes essential Ca^2+. The FXa produced was quantified by monitoring hydrolysis of the chromegenic FX substrate S-2222 (Chromogenix,Molndal, Sweden).\nThe kinetics of inhibition of FX activation by FVII-5 was investigated. Varying concentrations of FVII-5 were incubated with different concentrations of Factor X in the presence or absence of TF and FVIIa."}, "[3]": {"target": "T3, purified human FVIIa bound to recombinant human TF (apoTF/FVIIa) (Homo sapiens, UniProt P13726)", "T3 construct": "purchased American Diagnostica (TF); Enzyme Research Laboratories (FVIIa) 4500 (TF); HFVlla (FVIIa)", "T3 sequence (P13726 33-295)": "as above", "assay": "Assay of apoTF/FVIIa catalytic (amidolytic) activity", "assay_type": "biochemical", "details": "for pIC50: read-out: IC50, Amidolytic apo TF Assay", "protocol": "Assay of apoTF/FVIIa Catalytic Activity\nThis […] assay was used to measure directly the amidolytic (catalytic) activity of purified human FVIla when bound to recombinant human TF in the absence of phospholipid.\nReactions were performed in microtitre plate wells, using a final incubation volume of 200 uL. Test compounds, dissolved in water, (final concentration, 0-1 mM) were preincubated with recombinant human tissue factor (American Diagnostica, cat# 4500; 5 nM) and CaCl2 (5 mM) in Tris buffer (100 mM), pH 7.2, containing NaCl (150 mM) and BSA (1 mg/mL) at ambient temperature for 30 minutes. Factor Vlla (Enzyme Research Laboratories, cat# HFVlla; 5 nM) was added and the incubations continued for 60 minutes. Chromogenic substrate, S2288 (Chromogenix cat# 820852; 0.5 mM) was then added and the enzymatic activity of the tissue factor apoprotein/factor VII complex (apoTF/FVlla) was monitored at 405 nm."}, "[4]": {"target": "T4, native TF/FVIIa complex on the surface of HT-1080 cells (Homo sapiens, UniProt P13726)", "T4 construct": "native TF/FVIIa complex on the surface of living cells expressing TF in their cell membrane; endogenous in cells; host or cells: HT-1080 human fibrosarcoma cells on Cytodex-3 microcarriers", "T4 sequence (P13726 33-295, one chain of several)": "as the sequence (P13726 33-295) above", "assay": "Assay of HT1080 cell surface TF/FVIIa mediated activation of FX (amidolytic microcarrier assay)", "assay_type": "cell-based"}, "[5]": {"test_system": "coagulation factors of the intrinsic and common pathways of coagulation", "assay": "Coagulation assay initiated by contact activation (Cephotest)", "details": "all coagulation factors other than TF/FVII", "excerpt": "The effect of the peptides observed in the coagulation assay could conceivably have been due to effects on another one or more of the several components contributing to the coagulation cascade. This possibility was therefore tested by adding the peptides to coagulation assays which were initiated by contact activation (Cephotest™, Nycomed), and therefore involved coagulation factors of the intrinsic and common pathways of coagulation, i.e. all coagulation factors other than TF/FVII. […] Thus evidence was obtained that the effects observed in the TF/FVII initiated coagulation assay above were in fact due to a direct effect on the TF/FVII complex."}, "[6]": {"target": "binding of Factor VII to tissue factor (Homo sapiens, UniProt P13726)", "sequence (P13726 33-295)": "as above", "assay": "Inhibition of FVII/TF binding or FVII activity, assay not specified (summary statements)"}, "[7]": {"target": "Factor VII and tissue factor (Homo sapiens, UniProt P13726)", "sequence (P13726 33-295, species assumed)": "as the sequence (P13726 33-295) above", "details": "Corvas Inc., Table 1 of WO90/03390; cited from earlier work"}}, "note": "pIC50: −log10 of the molar value. Where a SMILES comes first, the peptide text is derived from it. Bridges are numbered along the chain shown (N, C = ends).", "data": [{"compound": "CC(C)C[C@@H]1NC(=O)[C@@H](N)CSSC[C@@H](C(=O)O)NC(=O)[C@H](CC(N)=O)NC(=O)[C@H](CCCNC(=N)N)NC(=O)CNC(=O)[C@H](CCC(=O)O)NC(=O)[C@H](Cc2ccccc2)NC(=O)[C@H](C)NC(=O)[C@@H]2CCCN2C1=O", "note": "[72-81(C)]", "values": [{"measurement": "inhibition at 500 µM", "setting": "[1]", "result": 89, "unit": "%"}, {"measurement": "inhibition at 500 µM", "setting": "[2]", "result": 22, "unit": "%"}]}, {"compound": "CC(C)[C@@H]1NC(=O)[C@@H](N)CSSC[C@@H](C(=O)O)NC(=O)[C@H](Cc2ccc(O)cc2)NC(=O)[C@H](CCC(N)=O)NC(=O)[C@H](CCC(=O)O)NC(=O)[C@H](CS)NC(=O)CNC(=O)CNC(=O)[C@H](CC(N)=O)NC(=O)[C@H](CCC(=O)O)NC(=O)[C@H](CC(N)=O)NC1=O", "note": "[91-102(C)] (H-CVNENGGCEQYC-OH; disulfide 1-12 (inferred))", "values": [{"measurement": "Mode of inhibition of Factor X activation", "setting": "FVIIa/TF", "result": "noncompetitive inhibition"}]}, {"compound": "CC(C)[C@H](NC(=O)[C@@H](N)CS)C(=O)N[C@@H](CC(N)=O)C(=O)N[C@@H](CCC(=O)O)C(=O)N[C@@H](CC(N)=O)C(=O)NCC(=O)NCC(=O)N[C@@H](CS)C(=O)N[C@@H](CCC(=O)O)C(=O)N[C@@H](CCC(N)=O)C(=O)N[C@@H](Cc1ccc(O)cc1)C(=O)N[C@@H](CS)C(=O)O", "note": "[91-102(L)] (H-CVNENGGCEQYC-OH; N-terminus and C-terminus assumed)", "values": [{"measurement": "pIC50", "setting": "[3]", "result": 2.94}, {"measurement": "pIC50", "setting": "[1]", "result": 4.22}, {"measurement": "inhibition at 500 µM", "setting": "[2]", "result": 14, "unit": "%"}]}, {"compound": "CC(C)C[C@@H]1NC(=O)[C@H](CC(C)C)NC(=O)[C@H](CO)NC(=O)[C@H](Cc2ccc(O)cc2)NC(=O)CNC(=O)[C@H](CCC(=O)O)NC(=O)[C@H](Cc2c[nH]cn2)NC(=O)[C@@H](N)CSSC[C@@H](C(=O)O)NC(=O)[C@H](CO)NC(=O)[C@H](C(C)C)NC(=O)CNC(=O)[C@H](CC(=O)O)NC(=O)[C@H](C)NC1=O", "note": "[114-127(C)] (H-CHEGYSLLADGVSC-OH; disulfide 1-14)", "values": [{"measurement": "inhibition at 500 µM", "setting": "[3]; peptide 0.5 mM, did not reach near-quantitative inhibition at 1 mM, read-out: % inhibition at 0.5 mM, Amidolytic apo TF Assay", "result": 21, "unit": "%"}, {"measurement": "inhibition at 500 µM", "setting": "[1]", "result": 77, "unit": "%"}, {"measurement": "inhibition at 500 µM", "setting": "[2]", "result": 44, "unit": "%"}]}, {"compound": "Ac-SDHTGTKRS-NH2 [103-111]", "values": [{"measurement": "pIC50", "setting": "[3]", "result": 2.66}, {"measurement": "pIC50", "setting": "[4]; HT-1080 cells on microcarriers", "result": 3.06}, {"measurement": "inhibition at 500 µM", "setting": "[1]", "result": 59, "unit": "%"}, {"measurement": "inhibition at 500 µM", "setting": "[2]", "result": 30, "unit": "%"}, {"measurement": "Effect on contact-activated coagulation (specificity)", "setting": "[5]", "result": "inactive"}]}, {"compound": "CHEGYSLLADGVSC [114-127, FVII residues 114-127]", "values": [{"measurement": "Inhibitory activity, in words", "setting": "[6]", "result": "relatively active"}, {"measurement": "Inhibition of activation of Factor X by Factor VII and tissue factor as reported in WO90/03390", "setting": "[7]", "result": "zero inhibitory acticity"}]}, {"compound": "CLPAFEGRNC [72-81]", "values": [{"measurement": "Synergistic enhancement of the inhibitory action of peptides of the sequence 91 to 104", "setting": "[6]; in combination", "result": "acted synergistically"}, {"measurement": "Inhibition of activation of Factor X by Factor VII and tissue factor as reported in WO90/03390", "setting": "[7]", "result": "zero inhibitory acticity"}]}, {"compound": "CVNENGGCEQYC [91-102, FVII residues 91-102]", "values": [{"measurement": "Effect on contact-activated coagulation (specificity)", "setting": "[5]", "result": "inactive"}, {"measurement": "Inhibitory activity, in words", "setting": "[6]", "result": "particularly active"}, {"measurement": "Inhibition of activation of Factor X by Factor VII and tissue factor as reported in WO90/03390", "setting": "[7]", "result": "zero inhibitory acticity"}]}, {"compound": "Hirudin [reference compound]", "values": [{"measurement": "Effect on contact-activated coagulation (specificity)", "setting": "[5]", "result": "strongly inhibitory"}]}, {"compound": "NGGCEQYCSD [95-104, FVII residues 95 to 104]", "values": [{"measurement": "Inhibition of FVII binding to rTF, in words", "setting": "[1]; peptides at 0.5 mM (FIG. 13)", "result": "inhibitors"}, {"measurement": "Effect on contact-activated coagulation (specificity)", "setting": "[5]", "result": "inactive"}, {"measurement": "Inhibitory activity, in words", "setting": "[6]", "result": "most active inhibitor so far tested"}]}, {"compound": "SDHTGTKRSC [reference compound]", "values": [{"measurement": "Inhibitor of the binding of Factor VII to tissue factor, in words", "setting": "[6]", "result": "rather poor inhibitor"}, {"measurement": "Inhibitory activity, in words", "setting": "[6]", "result": "only moderate activity"}, {"measurement": "Inhibition of activation of Factor X by Factor VII and tissue factor as reported in WO90/03390", "setting": "[7]", "result": "active"}]}, {"compound": "TAP: tick anticoagulant polypeptide; control inhibitor of FX (YNRLCIKPRDWIDECDSNEGGERAYFRNGKGGCDSFWICPEDHTGADYYSSYRDCFNACI; UniProt P17726 1-60, looked up) [reference compound]", "values": [{"measurement": "Inhibition of FXa amidolytic activity generated by HT-1080 cell-surface TF/FVIIa", "setting": "[4]; HT-1080 cells", "result": "inhibition of activity"}, {"measurement": "Effect on contact-activated coagulation (specificity)", "setting": "[5]", "result": "strongly inhibitory"}]}]}
